Measurements published in patent US20020019421A1, “Compositions and therapy for substance addiction” (priority 2000, published 2002).
Values joined by “and” are separate entries in the source; they are usually repeats but may differ in a detail not shown here. Equal values may be shown once.

Legend:
[1] = tested on: intestinal monoamine oxidase; assay: Intestinal monoamine oxidase activity maintained in mice; format: in vivo; details: 0.6 mg/kg
Procedure: (§1) The inhibitor of monoamine oxidase inhibitor is administered in an effective amount, which is that amount necessary to alleviate, reduce, attenuate, or eliminate the symptoms associated with the addictive disorder, disorder or condition to be treated or to slow disease progression. The monoamine oxidase inhibitor can also be administered prophylactically, in order to prevent symptoms associated with the addicitve disorder or disease, or to delay onset of symptoms associated withdrawal or abstinence. If more than one inhibitor of monoamine oxidase inhibitor is used, the effective amount is that amount of the combination of inhibitor of monoamine oxidase inhibitors that is necessary to alleviate, reduce, eliminate, prevent, or delay onset of the symptoms associated with withdrawal or abstinence. The effective amount will be determined on an individual basis, and will be based in part, on consideration of the particular monoamine oxidase inhibitor, the individual's size and gender, the severity of the symptoms to be treated, the result sought, and the disease, disorder or condition to be treated or prevented. […] The effective amount can be determined by one of ordinary skill in the art, employing such factors and using no more than routine experimentation.

[2] = tested on: striatal monoamine oxidase; assay: Inhibition of striatal monoamine oxidase in mice; format: in vivo
Procedure: as §1

[3] = tested on: smoking cessation; details: cited from earlier work
[4] = tested on: subjects addicted to chronic cigarette smoking; assay: Experiment One: prospective open trial, self-reported cigarette consumption after quit day
Procedure: An experimental clinical trial was performed to assess the effect of selegiline alone and in combination with co-administration of nicotine.
In this prospective open trial subjects addicted to chronic cigarette smoking were administered either oral selegiline tablets (Jumex, Janssen, Belgium) 5 mg. b.i.d. or administered, for subjects 8 and 9, combined co-administration of both oral selegiline and nicotine replacement therapy via transdermal patch. Subjects were then monitored for their level of tobacco product consumption during the course of the next 8 weeks. The study protocol relied on the subjective report of the patient for measurement of the therapy outcome, i.e. reporting of level of cigarette consumption was elicited from the participating subjects at weekly intervals intervals throughout the course of the study, unless the patient was using nictotine replacement therapy. Initial, trial entry levels of craving were determined by administration of the Fagerström Tolerance Score exam, while initial level of mood was monitored by administering the Beck Depression Inventory.
Following one week on the medication, the subjects were instructed to quit smoking on “quit day”, as predetermined at the initiation of the study.

C#CCN(C)CCCOc1ccc(Cl)cc1Cl [clorgyline]
intestinal monoamine oxidase activity maintained [1]: 50% | preferred effective amount to inhibit 90% of striatal monoamine oxidase while maintaining 50% of intestinal activity [2]: 0.6 mg/kg | inhibition of striatal monoamine oxidase ([2]; 0.6 mg/kg): 90%

CN1CCC[C@H]1c1cccnc1 [nicotine]
success rate, nicotine patch alone ([3]; N. Eng J Med 1999, 340:685-91): 9.8% | success rate for smoking cessation, nicotine transdermal patch as sole therapy ([3]; current best accepted / known efficacy): about 20% | cigarettes consumed per week ([4]; week 1 from quit day, oral selegiline 5 mg b.i.d. and/or nicotine transdermal patch): 0 Cig/wk | cigarettes consumed per week ([4]; week 2 from quit day): 0 Cig/wk | cigarettes consumed per week ([4]; week 3 from quit day): 0 Cig/wk | cigarettes consumed per week ([4]; week 4 from quit day): 0 Cig/wk | cigarettes consumed per week ([4]; week 5 from quit day): 0 Cig/wk | cigarettes consumed per week ([4]; week 6 from quit day): 21 Cig/wk | cigarettes consumed per week ([4]; week 7 from quit day): 35 Cig/wk | cigarettes consumed per week ([4]; week 8 from quit day): 60 Cig/wk

C#CCN(C)[C@H](C)Cc1ccccc1 [selegiline, (R)-(−)-N,2-dimethyl-N-2-propynylphenethylamine]
efficacy: subjects treated successfully (abstaining or significantly reducing cigarette smoking) ([4]; during treatment, Table 2): about 30% | outcome in words: effect on cigarette smoking ([4]; open trial, 8 weeks): effective treatment for substance addiction | cigarettes consumed per week ([4]; week 1 from quit day, oral selegiline 5 mg b.i.d. and/or nicotine transdermal patch, listed as S): 0 Cig/wk (3×) and 21 Cig/wk and 140 Cig/wk and 210 Cig/wk and 35 Cig/wk | cigarettes consumed per week ([4]; week 2 from quit day, listed as S): 0 Cig/wk (3×) and 21 Cig/wk and 70 Cig/wk | cigarettes consumed per week ([4]; week 3 from quit day, listed as S): 0 Cig/wk (2×) and 25 Cig/wk and 3 Cig/wk | cigarettes consumed per week ([4]; week 4 from quit day, listed as S): 0 Cig/wk (3×) and 25 Cig/wk | cigarettes consumed per week ([4]; week 5 from quit day, listed as S): 0 Cig/wk (2×) and 25 Cig/wk | cigarettes consumed per week ([4]; week 6 from quit day): 0 Cig/wk | cigarettes consumed per week ([4]; week 7 from quit day, listed as S): 0 Cig/wk (2×) and 21 Cig/wk | cigarettes consumed per week ([4]; week 8 from quit day, listed as S): 0 Cig/wk and 21 Cig/wk | cigarettes consumed per week ([4]; week 9 from quit day): 21 Cig/wk
